# According to paper PMC9019904, “AD Informer Set: Chemical tools to facilitate Alzheimer's disease drug discovery” (Alzheimer's & Dementia : Translational Research & Clinical …, 2022):
# Columns and labels:
# [1] = test system: HMC3 (human microglia) cell line; assay: pHrodo-myelin phagocytosis/cell viability high content imaging assay: phagocytosis signal; type: cell-based
# How it was run: (§1)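 Simultaneous phagocytosis/viability imaging at approximately 22 h after adding pHrodo-myelin. Rising intensity flagged early apoptosis and falling intensity later apoptosis.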
# [2] = test system: BV2 (mouse microglia) cell line; assay: as above; type: cell-based
# How it was run: as §1
# [3] = test system: HMC3 (human microglia) cell line; assay: pHrodo-myelin phagocytosis/cell viability high content imaging assay: viability (cell count, nuclear area, nuclear intensity); details: 48 hours treatment
# How it was run: (§2)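 Cells adhered overnight, then were exposed to compounds at a single 10 μM for 48 h in total, with pHrodo-myelin added for the last 20 h. High-content imaging gave cell count per well as the main viability measure plus mean nuclear intensity per cell. Duplicate wells were averaged and expressed as % of untreated control.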
# [4] = test system: BV2 (mouse microglia) cell line; assay: as above; details: 48 hours treatment
# How it was run: as §2
# [5] = HMC3 cells, 10 uM compound, 48 hours treatment, pHrodo-myelin final 20 hours
# [6] = BV2 cells, 10 uM compound, 48 hours treatment, pHrodo-myelin final 20 hours
# [7] = HMC3, compound 10 uM, pHrodo-myelin
# [8] = BV2, compound 10 uM, pHrodo-myelin
Structure (SMILES),"4. Phagocytosis (% control) [1, 5]","4. Phagocytosis (% control) [2, 6]","1. Cell count (% control) ([3]; HMC3 cells, 10 uM compound)","2. Nuclear Area (% Control) ([3]; HMC3 cells, 10 uM compound)","3. Nuclear DNA Intensity (% control) ([3]; HMC3 cells, 10 uM compound)","1. Cell count (% control) ([4]; BV2 cells, 10 uM compound)","2. Nuclear Area (% Control) ([4]; BV2 cells, 10 uM compound)","3. Nuclear DNA Intensity (% control) ([4]; BV2 cells, 10 uM compound)","4. Phagocytosis (% control) [1, 7]","4. Phagocytosis (% control) [2, 8]","1. Cell count (% control) ([3]; HMC3, compound 10 uM)","2. Nuclear Area (% Control) ([3]; HMC3, compound 10 uM)","3. Nuclear DNA Intensity (% control) ([3]; HMC3, compound 10 uM)","1. Cell count (% control) ([4]; BV2, compound 10 uM)","2. Nuclear Area (% Control) ([4]; BV2, compound 10 uM)","3. Nuclear DNA Intensity (% control) ([4]; BV2, compound 10 uM)"
C=CC(=O)Nc1cc2c(Nc3ccc(F)c(Cl)c3)ncnc2cc1OCCCN1CCOCC1.Cl.Cl [UNC10126563B],0.263 % control,4.1 % control,45.6 % control,65.0 % Control,201.5 % control,25.9 % control,92.7 % Control,52.1 % control,–,–,–,–,–,–,–,–
CCc1cnn2c(NCc3ccc[n+]([O-])c3)cc(N3CCCC[C@H]3CCO)nc12 [UNC10302845A],–,–,–,–,–,–,–,–,167.0 % control,3.5 % control,51.6 % control,136.2 % Control,97.0 % control,16.3 % control,103.8 % Control,20.9 % control
COc1cc([C@@H]2c3cc4c(cc3[C@H](O)[C@H]3COC(=O)[C@H]23)OCO4)cc(OC)c1OC [UNC10100984A],32.6 % control,197.0 % control,62.5 % control,67.2 % Control,227.6 % control,10.9 % control,112.2 % Control,112.7 % control,–,–,–,–,–,–,–,–
CC(C)CCN1c2nc(Nc3cc(F)c(O)c(F)c3)ncc2N(C)C(=O)C1C (stereo not drawn) [UNC10302870A],–,–,–,–,–,–,–,–,178.1 % control,123.8 % control,49.2 % control,127.1 % Control,123.8 % control,15.1 % control,106.7 % Control,111.0 % control
CCCCCCCCCCCCCCCCOCC(COCC(F)(F)F)OP(=O)([O-])OC.[Li+] (stereo not drawn) [UNC8441A],–,–,–,–,–,–,–,–,43.1 % control,99.7 % control,76.1 % control,97.9 % Control,109.2 % control,80.6 % control,107.7 % Control,98.9 % control
Nc1nc(Nc2ccc3c(c2)CC[C@@H](N2CCCC2)CC3)nn1-c1cc2c(nn1)-c1ccccc1CCC2 [UNC10220544A],0.8 % control,0.0 % control,56.4 % control,55.3 % Control,170.6 % control,2.8 % control,94.5 % Control,55.2 % control,–,–,–,–,–,–,–,–
CC[C@H](C)[C@H](N)C(=O)NCCN1CCOCC1.Cl.Cl [UNC10303094A],75.5 % control,157.3 % control,133.1 % control,103.2 % Control,95.9 % control,133.1 % control,103.4 % Control,103.6 % control,–,–,–,–,–,–,–,–
COc1nc(OCc2cccc(-c3ccccc3)c2C)ccc1CNCCNC(C)=O.Cl [UNC10302832A],0.4 % control,0.00132 % control,35.9 % control,69.0 % Control,171.8 % control,21.6 % control,92.8 % Control,35.4 % control,–,–,–,–,–,–,–,–
Cc1cc(C)nc(NC(=S)N2CCN(c3ccc(C(F)(F)F)cn3)CC2)c1 [UNC10302906A],109.8 % control,184.1 % control,134.6 % control,95.0 % Control,106.3 % control,93.3 % control,107.2 % Control,105.6 % control,–,–,–,–,–,–,–,–
C=C(c1ccc(C(=O)O)cc1)c1cc2c(cc1C)C(C)(C)CCC2(C)C [UNC10302949A],79.3 % control,117.0 % control,131.9 % control,99.3 % Control,94.9 % control,91.0 % control,109.3 % Control,95.6 % control,–,–,–,–,–,–,–,–
C[C@@H]1O[C@@H](O[C@H]2[C@H](Oc3cc(O)c4c(c3)O[C@H](c3ccc(O)cc3)CC4=O)O[C@H](CO)[C@@H](O)[C@@H]2O)[C@H](O)[C@H](O)[C@H]1O [UNC10242153A],65.7 % control,167.6 % control,139.8 % control,102.9 % Control,93.8 % control,113.5 % control,104.9 % Control,98.8 % control,–,–,–,–,–,–,–,–
CC1(C)CCC(CN2CCN(c3ccc(C(=O)NS(=O)(=O)c4ccc(NCC5CCOCC5)c([N+](=O)[O-])c4)c(Oc4cnc5[nH]ccc5c4)c3)CC2)=C(c2ccc(Cl)cc2)C1 [UNC10302836A],–,–,–,–,–,–,–,–,79.7 % control,211.1 % control,133.1 % control,98.6 % Control,97.8 % control,115.0 % control,107.1 % Control,100.7 % control
COc1cc(/C=C/c2ccc(NC(=O)/C=C/c3cc(OC)c(OC)c(OC)c3)cc2)cc(OC)c1 [UNC10302905A],65.4 % control,64.0 % control,87.3 % control,107.2 % Control,109.8 % control,33.3 % control,95.8 % Control,130.4 % control,–,–,–,–,–,–,–,–
CN(CCOc1ccc(CC2SC(=O)NC2=O)cc1)c1ccccn1 (stereo not drawn) [UNC10121399D],81.9 % control,142.2 % control,93.9 % control,101.5 % Control,97.8 % control,82.8 % control,102.9 % Control,100.2 % control,–,–,–,–,–,–,–,–
O=C(N/N=C/c1ccc(Cl)cc1)c1ccccc1 [UNC10302877A],87.3 % control,104.1 % control,103.0 % control,94.5 % Control,106.0 % control,100.1 % control,103.0 % Control,107.1 % control,–,–,–,–,–,–,–,–
